# Laboratory results: patent US5300629A, “Bactericidal and/or bacteriostatic peptides isolated from hemolymph of honeybees” (Plant Genetic Systems, N.V., priority 1987, dated 1994)
# Where a SMILES comes first, the peptide text is derived from it.
# Columns and labels:
# Assay type in all cases: cell-based
# [1] = tested on: Pseudomonas syringae pv. tabaci NCPPB 1237; experiment: Inhibition zone assay; set-up: key: --: "-" means that no inhibition has been found; settings: * synthetic ApidIa and heattreated immune lymph instead of Bee6 and native immune lymph
# [2] = tested on: Staphylococcus hominis STH B3; experiment: Inhibition zone assay; set-up: key: --: "-" means that no inhibition has been found; settings: L 5 ug
# [3] = tested on: Enterobacter agglomerans Gilardi 1081; experiment: Inhibition zone assay; set-up: key: --: "-" means that no inhibition has been found; settings: I and B 10 ul, L 5 ug
# [4] = tested on: Agrobacterium rhizogenes ATCC 11325; experiment: Inhibition zone assay; set-up: key: --: "-" means that no inhibition has been found; settings: I and B 10 ul, L 5 ug
# [5] = tested on: Haemophilus influenzae NCTC 7279; experiment: Inhibition zone assay; set-up: key: --: "-" means that no inhibition has been found; settings: I and B 10 ul
# [6] = tested on: Pseudomonas fluorescens ATCC 13525; experiment: Inhibition zone assay; set-up: key: --: "-" means that no inhibition has been found
# [7] = tested on: Pseudomonas cepacia ATCC 25416; experiment: Inhibition zone assay; set-up: key: --: "-" means that no inhibition has been found; settings: I and B 10 ul, L 5 ug
# [8] = tested on: Xanthomonas campestris pv. campestris A 902; experiment: Inhibition zone assay; set-up: key: --: "-" means that no inhibition has been found; settings: * synthetic ApidIa and heattreated immune lymph instead of Bee6 and native immune lymph
# [9] = tested on: Clostridium perfringens NCTC 6785; set-up: key: --: "-" means that no inhibition has been found; settings: I 10 ul
# [10] = tested on: E. coli NCTC 9001; experiment: Killing assay, growth inhibition in liquid medium; settings: purified factors in PBS (7.5% LPG), 10^3 cells, optical density at 630 nm
# Protocol: Bacterial development was monitored by measuring the optical densities and by plate counts. […] The purified factors resuspended in PBS (7.5% LPG) (FIG. 4A, 4B, 4C, 4D) were inoculated with 10^4 cells (C) or 10^3 cells (A, B and D) . Bacterial development was calculated by measuring the optical densities at 630 nm.
# [11] = tested on: Pseudomonas solanacearum ATCC 11696; set-up: key: --: "-" means that no inhibition has been found; settings: * synthetic ApidIa and heattreated immune lymph instead of Bee6 and native immune lymph
# [12] = tested on: Clostridia
# [13] = tested on: Rhodococcus terrae ATCC 25594; experiment: Inhibition zone assay; set-up: key: --: "-" means that no inhibition has been found; settings: I and B 10 ul
# [14] = tested on: Agrobacterium tumefaciens ATCC 143; experiment: Inhibition zone assay; set-up: key: --: "-" means that no inhibition has been found
# [15] = tested on: Enterobacter cloacae LMG 2783; experiment: Inhibition zone assay; set-up: key: --: "-" means that no inhibition has been found; settings: I and B 10 ul
# [16] = tested on: Serratia liquefaciens DSM 30125; experiment: Inhibition zone assay; set-up: key: --: "-" means that no inhibition has been found; settings: I 10 ul, L 5 ug
# [17] = tested on: Bordetella bronchiseptica ATCC 19395; experiment: Inhibition zone assay; set-up: key: --: "-" means that no inhibition has been found; settings: I and B 10 ul, L 5 ug
# [18] = tested on: Agrobacterium radiobacter ATCC 19358; experiment: Inhibition zone assay; set-up: key: --: "-" means that no inhibition has been found; settings: I and B 10 ul, L 5 ug
# [19] = tested on: Flavobacterium capsulatum ATCC 14666; experiment: Inhibition zone assay; set-up: key: --: "-" means that no inhibition has been found
# [20] = tested on: Klebsiella aerogenes 1961 E; experiment: Inhibition zone assay; set-up: key: --: "-" means that no inhibition has been found; settings: I and B 10 ul, L 5 ug
# [21] = tested on: Erwinia amylovora NCPPB 638; experiment: Inhibition zone assay
# [22] = tested on: Corynebacterium insidiosum NCPPB 1109; experiment: Inhibition zone assay; settings: I and B 10 ul, L 5 ug
# Protocol: Whole lymph or purified components, resuspended in PBS to a final volume equal to the starting material (heated lymph), was applied in 3 mm wells on agar plates seeded with the test organisms. Antibacterial activity was determined by measuring the growth-inhibition zones (in mm).
# [23] = tested on: ATCC 17991; experiment: Inhibition zone assay; set-up: key: --: "-" means that no inhibition has been found; settings: Salmonella marcescens ATCC 17991
# [24] = tested on: Erwinia carotovora var. atroseptica NCPPB 549; experiment: Inhibition zone assay; set-up: key: --: "-" means that no inhibition has been found; settings: I and B 10 ul, L 5 ug
# [25] = tested on: Salmonella enteritidis 83/34; experiment: Inhibition zone assay; set-up: key: --: "-" means that no inhibition has been found; settings: I and B 10 ul
# [26] = tested on: Proteus morganii CuETM 77-83; experiment: Inhibition zone assay; set-up: key: --: "-" means that no inhibition has been found; settings: I and B 10 ul, L 5 ug
# [27] = tested on: Janthinobacterium lividum Sneath HB; experiment: Inhibition zone assay; set-up: key: --: "-" means that no inhibition has been found; settings: I and B 10 ul, L 5 ug
# [28] = tested on: Bacillus megaterium QMB 1551; experiment: Inhibition zone assay; set-up: key: --: "-" means that no inhibition has been found; settings: I and B 10 ul, L 5 ug
# [29] = tested on: Neisseria mucosa ATCC 25999; experiment: Inhibition zone assay; set-up: key: --: "-" means that no inhibition has been found; settings: I 10 ul
# [30] = tested on: Pseudomonas acidovorans CuETM 83-109; experiment: Inhibition zone assay; set-up: key: --: "-" means that no inhibition has been found; settings: I and B 10 ul, L 5 ug
# [31] = tested on: Salmonella infantis 81/257; experiment: Inhibition zone assay; set-up: key: --: "-" means that no inhibition has been found; settings: I and B 10 ul
# [32] = tested on: Serratia plymuthica ATCC 183; experiment: Inhibition zone assay; set-up: key: --: "-" means that no inhibition has been found; settings: I and B 10 ul, L 5 ug
# [33] = tested on: Pseudomonas syringae pv. syringae ATCC 19310; experiment: Inhibition zone assay; set-up: key: --: "-" means that no inhibition has been found
# [34] = tested on: Klebsiella oxytoca KO2; experiment: Inhibition zone assay; set-up: key: --: "-" means that no inhibition has been found
structure (smiles),measurement,setting,value
CC[C@H](C)[C@H](NC(=O)[C@H](CCCCN)NC(=O)[C@@H]1CCCN1C(=O)[C@H](CC(N)=O)NC(=O)[C@H](Cc1ccccc1)NC(=O)[C@@H]1CCCN1C(=O)CNC(=O)[C@H](CCC(N)=O)NC(=O)CNC(=O)[C@@H]1CCCN1C(=O)[C@H](Cc1ccccc1)NC(=O)[C@@H](NC(=O)[C@@H]1CCCN1C(=O)[C@H](Cc1ccccc1)NC(=O)[C@@H]1CCCN1C(=O)[C@H](CCCNC(=N)N)NC(=O)[C@H](CCCNC(=N)N)NC(=O)CNC(=O)[C@@H]1CCCN1C(=O)[C@H](CCC(N)=O)NC(=O)[C@@H]1CCCN1C(=O)[C@@H](NC(=O)[C@H](CC(N)=O)NC(=O)[C@@H]1CCCN1C(=O)[C@H](CC(C)C)NC(=O)[C@@H]1CCCN1C(=O)[C@@H](NC(=O)[C@@H](N)Cc1ccc(O)cc1)C(C)C)C(C)C)[C@@H](C)O)C(=O)N[C@@H](CCCCN)C(=O)N[C@@H](Cc1c[nH]c2ccccc12)C(=O)N1CCC[C@H]1C(=O)N[C@@H](CCC(N)=O)C(=O)NCC(=O)N[C@@H](Cc1ccc(O)cc1)C(=O)O [bee 9] (H-YVPLPNVPQPGRRPFPTFPGQGPFNPKIKWPQGY-OH),diameter of growth-inhibition zone,[1],--
same,diameter of growth-inhibition zone,[2],--
same,diameter of growth-inhibition zone,[3],--
same,diameter of growth-inhibition zone,[4],--
same,diameter of growth-inhibition zone,[5],--
same,diameter of growth-inhibition zone,[6],--
same,diameter of growth-inhibition zone,[7],--
same,diameter of growth-inhibition zone,[8],--
same,diameter of growth-inhibition zone,[9],--
same,"activity, growth inhibition in liquid medium",[10],neither susceptible
same,diameter of growth-inhibition zone,[11],--
same,"susceptibility, in words",[12],resistant
same,diameter of growth-inhibition zone,[13],--
same,diameter of growth-inhibition zone,[14],--
same,diameter of growth-inhibition zone,[15],--
same,diameter of growth-inhibition zone,[16],--
same,diameter of growth-inhibition zone,[17],--
same,diameter of growth-inhibition zone,[18],--
same,diameter of growth-inhibition zone,[19],--
same,diameter of growth-inhibition zone,[20],--
same,diameter of growth-inhibition zone,[21],5 mm
same,diameter of growth-inhibition zone,[22],7 mm
same,diameter of growth-inhibition zone,[23],--
same,diameter of growth-inhibition zone,[24],--
same,diameter of growth-inhibition zone,[25],--
same,diameter of growth-inhibition zone,[26],--
same,diameter of growth-inhibition zone,[27],--
same,diameter of growth-inhibition zone,[28],--
same,diameter of growth-inhibition zone,[29],--
same,diameter of growth-inhibition zone,[30],--
same,diameter of growth-inhibition zone,[31],--
same,diameter of growth-inhibition zone,[32],--
same,diameter of growth-inhibition zone,[33],--
same,diameter of growth-inhibition zone,[34],--
